Source: patent publication US11180518B2, “Phenyl-heterocycle-phenyl derivatives for use in the treatment or prevention of melanoma” (MAX-PLANCK-GESELLSCHAFT ZUR FÖRDERUNG DER WISSENSCHAFTEN …, priority 2017, dated 2021)
Entries after “also recorded” stand apart in the source; their conditions may differ. Like-named read-outs stand apart in the source and are kept apart here.

Key:
[1] = tested on: high-level α-synuclein expressing cell lines WM983-B; assay: Initial screen of sixteen compounds from the DPP library; format: cell-based, human
WM983-B melanoma cells [2] = assay: Melanoma cell proliferation analysis (hemocytometer counting); format: cell-based, human; settings: single dose of 10 μM, 24 hr
Description: To compare how rapidly anle138b affected the proliferation of melanoma cells, expressing α-synuclein at a high level, we treated the melanoma cell lines, WM983-A (VGP) and WM983-B (MGP), for 24, 48 or 72 hr with 10 μM of anle138b, with replenishment of the compound (10 μM) at 48 hr.
(§1) 10 or 30 mM stock solutions of anle138b or anle138c were made in DMSO. Since anle138b as well as anle138c bind strongly to FBS, melanoma cells, plated for 24 hr in tissue-culture medium containing 10% FBS, were rinsed three times with serum-free medium prior to addition of anle138b, anle138c, or an equivalent volume of DMSO only in serum-free medium. Forty-eight hours later, the cell culture medium was removed, followed by addition of an equivalent dose of anle138b or anle138c, or DMSO only in serum-free culture medium. […] Proliferation of melanoma cells that had received DMSO only, or were treated with anle138b was determined by counting the cells with a hemocytometer.

WM1158 melanoma cells [3] = assay: Melanoma cell proliferation analysis; format: cell-based, human
Description: To assess the possible impact of anle138b as well as anle138c on the different melanoma cell lines, WM983-A, WM983-B and SK-MEL-5, we treated them with increasing doses of either compound, dissolved in dimethyl sulfoxide (DMSO), and added to serum-free culture medium. […] We also observed that treatment with anle138b caused a more rapid morphological change than anle138c. To determine whether the effect of the two anle compounds was related to the amount of α-synuclein produced by the cells, we compared the proliferation of the (VGP) WM983-A high-level and the (RGP/VGP) WM1158 low-level α-synuclein-producing melanoma cells over a period of 96 hr, with replenishment of each anle compound at 48 hr (FIGS. 8A and B).
as §1

SK-MEL-5 melanoma cells = assay: Mitochondrial membrane potential (MitoTracker Red CMXRos); format: cell-based, human; settings: single 10 μM dose, as early as 24 hr
Description: (§2) Mitochondrial membrane potential. Melanoma cell lines WM983-B, SK-MEL-5 and WM1158 were treated with anle138b or received DMSO only for 24 or 48 hr. Prior to fixation with 3.7% PFA, the cells were incubated with 200 nM MitoTracker Red CMXRos (Thermo Fisher Scientific, Inc.) for 30 min at 37° C. Confocal image stacks were captured with a 63×NA 1.2 Apochromat water immersion lens on a Zeiss LSM 510 Meta confocal microscope in fluorescence and transmission modes.

WM1158 melanoma cells [4] = assay: as above; format: cell-based, human; settings: 10 μM, only after 48 hr
Description: as §2

WM983-B melanoma cells [5] = assay: as above; format: cell-based, human; settings: single 10 μM dose, as early as 24 hr
Description: as §2

[6] = Pharmacokinetic (HPLC) analysis of resected xenograft tumors; format: in vivo, nude mice; settings: female, CAnN.Cg-Foxn1nu/Crl nude, mouse, tumor (WM983-B human melanoma xenograft, oral, 2 g of anle138b/kg of food pellets), food pellets with 2 g/kg for seven days, read-out: level in the tumor
Description: To determine whether the DPP compound, anle138b, when administered systemically to human MGP melanoma cells grown as subcutaneous tumors in nude mice, would reach the tumors, we performed the following study. A nude mouse, bearing high-level α-synuclein-expressing (MGP) WM983-B human melanoma xenografts on its lower right and on its lower left dorsal side, received, for seven days, food pellets mixed with anle138b. A second nude mouse, also bearing WM983-B tumors on its lower right as well as on its lower left dorsal side, received, for seven days, the same type of food pellets not containing anle138b. After the mice were sacrificed, we performed the following analyses on the post-mortem resected and thereafter, cryopreserved tumors. […]
Cryopreserved WM983-B human melanoma xenograft tissues were brought to 4° C. prior to their transfer into Precellys CKMix—2 mL tissue homogenizing tubes, and homogenization in 0.5 to 1.00 ml acetonitrile using a Precellys Evolution Super homogenizer (Bertin Instruments, Montigny-le-Bretonneux, France). […] The effluent was monitored for UV absorption at 260 nm. Samples were quantitated using peak area ratio of compounds to external standard.

[7] = in vivo; cited from earlier work
[8] = tested on: autophagy markers, LC3 and p62/SQSTM1; settings: mouse, in vivo; cited from earlier work
WM852 melanoma cells = assay: LDH cytotoxicity analysis; settings: 2, 5, 10 or 15 μM for 96 hr, replenishment at 48 hr
Description: Replicates of WM983-B as well as WM852 melanoma cells were plated at 3×10^5 cells per well in 35 mm tissue culture plates. Twenty-four hours later, the cells were rinsed three times with serum-free medium, followed by addition of increasing doses of anle138b or DMSO only. Forty-eight hours later, the cell culture medium was removed, followed by addition of equivalent doses of anle138b or DMSO only in serum-free medium. Culture medium, collected 48 hr later, was centrifuged to pellet and remove cellular debris. Using a PHERAstar FS microplate reader (BMG LABTECH GmbH, Ortenberg, Germany) and spectrophotometric absorbance measurement, the release of LDH enzyme activity into the tissue culture medium was determined with an LDH cytotoxicity assay kit (Roche Diagnostics Deutschland GmbH, Mannheim, Germany). […] Cells from the DMSO controls were trypsinized, counted, and lysed according to the manufacturer's instructions.

Structure (SMILES): Brc1cccc(-c2cc(-c3ccc4c(c3)OCO4)n[nH]2)c1 [anle138b, 5-(3-Bromophenyl)-3-(3,4-methylenedioxyphenyl)-1H-pyrazole]
- effect on WM983-B cells in initial screen [1]: significantly affected; also recorded: strongest and most rapid effect
- proliferation (WM983-B melanoma cells [2]): inhibited the proliferation of both cell lines to a significant extent
- proliferation (WM1158 melanoma cells [3]; over 96 hr, replenishment at 48 hr): reduced proliferation only after 48 hr
- recovery of proliferation after removal of compound (WM1158 melanoma cells [3]; removal at 96 hr, fresh culture medium containing serum): able to recover proliferation normally
- mitochondrial membrane potential (SK-MEL-5 melanoma cells): significantly reduced
- mitochondrial membrane potential (WM1158 melanoma cells [4]): some reduction
- mitochondrial membrane potential (WM983-B melanoma cells [5]): significantly reduced
- concentration at 7 days ([6]; tumor from left dorsal side (218 mg)): 110 µM
- concentration at 7 days ([6]; tumor from right dorsal side (57 mg)): 125 µM
- oral bioavailability and blood-brain-barrier penetration [7]: excellent
- level of the autophagy markers, LC3 and p62/SQSTM1 [8]: did not change
- number of cells killed (LDH release) compared with WM983-B (WM852 melanoma cells): significantly lower
